This is an account of results in PMC9396645 (Frontiers in Chemistry, 2022).

The subject of one data set is C4-2 cells. The data set can be described thus: Internalization efficiency / specific cell uptake in C4-2 cells. The format is cell-based, human. As for the experimental part:
The specific internalization ratio was determinated in 24-well plates. The plates were previously coated with 0.1% poly-L-lysine in PBS for 20 min and washed with PBS once. C4-2 cells (10^5 cells per analysis) were added to each well and equilibrated overnight. The cells were incubated for 45 min with 250 µL of a 30 nM solution of the ^68Ga-labeled compounds either in a water bath at 37°C or on ice. The PSMA-receptor-blocking agent 2-(phosphonomethyl)pentanedioic acid (2-PMPA; 500 μM; Axxora) was used to verify the specificity of the cellular uptake of the novel compounds. The cells were washed thrice (using 1 ml of ice-cold PBS), followed by an incubation with 0.5 ml of a glycine solution (50 mM in HCl at a pH of 2.8) for 5 min, washed once with 1 ml of ice-cold PBS, and finally lysed with 0.5 ml of 0.3 M NaOH. The lysate was collected, and the radioactivity was measured in a gamma-counter. Triplicate measurements were performed for all experiments.

In data set [1] the test system is C4-2 tumor bearing BALB/c nu/nu mice. Put plainly: Small-animal PET imaging in C4-2 tumor bearing mice. The format is in vivo, mouse. Particulars: mean SUV from PET, 2 h p.i. The source says: Athymic male nude mice (BALB/c nu/nu) were purchased from Charles River at 4‒5 weeks of age (19–23 g). The mice were kept under pathogen-free conditions for 1 week prior to the study. The mice had free access to water and food and were housed with a 12-h/12-h light/dark cycle. The xenografts required for positron emission tomography (PET) imaging and biodistribution studies were obtained by inoculation of 5 × 10^7 C4-2 cells in 50% Matrigel in Opti-MEM I (1 ×) medium. For this purpose, the mice were anesthetized with 2% sevoflurane, and inoculation was performed subcutaneously on the right trunk. When the size of the tumor was approximately 1 cm^3, the studies were performed.
For small-animal PET imaging, the different ^68Ga-labeled PSMA ligands (0.5 nmol, 20 MBq in approximately 100 µL 0.9% saline) were injected into C4-2 tumor bearing mice. The dynamic PET was recorded in a small animal PET scanner (Siemens Inveon D-PET). The standardized uptake values (SUVs) were obtained from conventional (non-dynamic) PET images. The formula for the SUV was SUV=activity in ROI (Bq/ml) × animal weight (g)/injected dose(Bq)
Manual delineation of the respective appropriate whole organ (heart, kidneys, bladder, tumor, with an approximate volume of 100–500 µL) yielded the volumes of interest (VOIs). For this purpose, whole organs or parts of the organ/tissue (liver and muscle) were used. The images were reconstructed based on the procedure: OSEM 3D/SP MAP with 16 subsets, two iterations, and an image x-y size: 256, image z size: 161. The data were not modified with a post-processing filter. Analysis of the images and time-activity curves (TACs) was conducted on the Inveon™ Acquisition Workplace (IAW) from Siemens IRW 4.1. […] […] The mean SUVs were plotted over time in order to compare the different radiotracers.

The test system of another data set is prostate cancer patients. On the set-up: method as in earlier work. Conditions: patients PET/CT, ref Afshar-Oromieh et al. (2015a) and Afshar-Oromieh et al. (2015b), cited from earlier work.
Setting [2] is: ^68Ga-labeled compounds 30 nM, 45 min, 37°C, specificity by 2-PMPA 500 μM, mean ± SD (n = 3).

Read-outs that look alike come from different tables or passages of the source.

`O=C(O)CC[C@H](NC(=O)N[C@@H](CCCCNC(=O)[C@H](Cc1ccc2ccccc2c1)NC(=O)[C@H]1CC[C@H](CNC(=O)CN2CCN(CC(=O)O)CCN(CC(=O)O)CCN(CC(=O)O)CC2)CC1)C(=O)O)C(=O)O` [PSMA-617, reference compound]: the “specific internalization in C4-2 cells” value in the data set with C4-2 cells (Table 2) is on record as 15.6 % ID/10^6 cells. Besides, in the data set on C4-2 cells (setting [2]), the Specific cell surface is 45.18 ± 3.61 %IA/10^6cells and the “Specific lysate (internalization)” value worked out at 15.55 ± 3.07 %IA/10^6 cells.

In the case of `O=C([O-])CN1CCN(CC(=O)[O-])CCN(C(CCC(=O)NCc2ccc(NC(=S)NCC3CCC(C(=O)NC(Cc4ccc5ccccc5c4)C(=O)NCCCCC(NC(=O)NC(CCC(=O)O)C(=O)O)C(=O)O)CC3)cc2)C(=O)O)CCN(CC(=O)[O-])CC1.[68Ga+3]` (stereo not shown) [^68Ga-CA029], the tumor-to-kidney ratio in data set [1] was 0.52. Also, the “Specific lysate (internalization)” value in the data set on C4-2 cells (setting [2]) was determined as 44.3 ± 3.9 %IA/10^6 cells.

As to `O=C([O-])CN1CCN(CC(=O)[O-])CCN(CC(=O)NCC2CCC(C(=O)NC(Cc3ccc4ccccc4c3)C(=O)NCCCCC(NC(=O)NC(CCC(=O)O)C(=O)O)C(=O)O)CC2)CCN(CC(=O)[O-])CC1.[68Ga+3]` (stereo not shown) [^68Ga-PSMA-617], in the data set on prostate cancer patients (1 h p.i.), the “SUV mean Blood pool, mediastinal” value is recorded as 2.5; the “SUV mean Bone metastasis” value was 9.4; the “SUV mean Colon” value is reported as 3.5; the “SUV mean Gluteal muscle” value is reported as 0.7. Further, in the data set on prostate cancer patients (1 h p.i.), the “SUV mean Kidneys” value is on record as 15.6, the “SUV mean Lacrimal gland” value is 4.9, the “SUV mean Liver” value is listed as 3.3 and the “SUV mean Lymph node” value is recorded as 7.1. In addition, in the data set on prostate cancer patients (1 h p.i.), the “SUV mean Nasal mucosa” value is given as 2.9, the “SUV mean Parotid gland” value is 10.4, the “SUV mean Proximal small intestine” value was 4.7 and the “SUV mean Spleen” value is listed as 4.3. Further, in the data set with prostate cancer patients (1 h p.i.), the “SUV mean Sublingual gland” value is listed as 4.6 and the “SUV mean Submandibular gland” value was 10. Also, in the data set on prostate cancer patients (3 h p.i.), the “SUV mean Blood pool, mediastinal” value was 2.4; the “SUV mean Bone metastasis” value is reported as 6.3; the “SUV mean Colon” value was 4.0; the “SUV mean Gluteal muscle” value is 0.7. Moreover, in the data set with prostate cancer patients (3 h p.i.), the “SUV mean Kidneys” value is listed as 17.0, the “SUV mean Lacrimal gland” value is given as 5.9, the “SUV mean Liver” value is recorded as 2.7 and the “SUV mean Lymph node” value is recorded as 13.5. Further, in the data set with prostate cancer patients (3 h p.i.), the “SUV mean Nasal mucosa” value was 3.4, the “SUV mean Parotid gland” value was 13.1, the “SUV mean Proximal small intestine” value is on record as 5.5 and the “SUV mean Spleen” value is given as 3.5. In the data set on prostate cancer patients (3 h p.i.), the “SUV mean Sublingual gland” value is 4.0 and the “SUV mean Submandibular gland” value is 12.4. For the same compound, the “Specific lysate (internalization)” value in the data set with C4-2 cells (setting [2]) amounted to 15.5 ± 3.1 %IA/10^6 cells.
